The results in this text go back to patent US20240016924A1, “NEW ADJUVANT TO IMPROVE THE INNATE IMMUNITY” (INSTITUT NATIONAL DE LA SANTÉ ET DE LA RECHERCHE MÉDICALE, priority 2020, published 2024).

Holding throughout (format): cell-based, human
One assay concerns RPMI 2650 cells. Briefly: TSLP secretion in nasal RPMI 2650 cell culture supernatants (ELISA). As to the method:
Nasal RPMI 2650 cells (isolated from the human nasal septum, squamous cell carcinoma, ATCC) were grown in MEMα (Minimum Essential Medium α, Thermo Fisher) supplemented with 10% fetal calf serum (FCS, Eurobio, Courtaboeuf, France) and 1% penicillin/streptomycin.
TSLP, IL-25/IL-17E, IL-33, IFN-γ, IL-10, IL-12/23p40, IL-4, IL-5, IL-6, IL-13, TNF-α, MMP-9, IL-8/CXCL8, […], MDC/CCL22, TARC/CCL17, APRIL and BAFF were measured in culture supernatants from indicated experiments with custom multiplex Luminex assays (Bio-techne) according to the manufacturer's instructions. Additionally, when indicated TSLP was measured in culture supernatants by enzyme-linked immunosorbent assay (ELISA) with a limit of detection of 8 pg/ml (Thermo Fisher) according to the manufacturer's instructions.
We first investigate whether P1 induced TSLP secretion in nasal epithelium. Therefore, we cultured human nasal epithelial cells (RPMI 2650) with P1 Glade B for 2-24 hours at 37° C. and analyzed the culture supernatants for TSLP secretion.

In another assay the test system is primary HNECs. Briefly: MicroRNA microarray analysis and miR qPCR after P1 stimulation. As to the method: Confluent HNECs in 12-well plate were stimulated with medium or P1 (clade B, 125 μM) for 6 hours, at 37° C. Total RNA was extracted using Trizol. Before analysis, lfTSLP RNA up-regulation was confirmed by qPCR as described above and RNA quality was assessed with Agilent 2100 bioanalyzer according to manufacturer instructions (Agilent Technologies). Three untreated and treated paired samples from three independent experiments were analyzed by GeneChip miRNA 4.0 arrays (Affymetrix, Thermo Fisher) containing probes for 2578 human mature microRNAs and 2025 pre-mature microRNAs (https://assets.thermofisher.com/TFS-Assets/LSG/brochures/miRNA_4-0_and_4-1_datasheet.pdf). Potential microRNA targets were analyzed with the Ingenuity Pathway Analysis (IPA) software (Qiagen).
The quantification and knockdown of microRNA were performed as previously described with some modifications (Zhou, Xu et al. 2018). Briefly, total RNA was purified using MinElute PCR Purification Kit (Qiagen), the expression level of miR-4485 was quantified with TaqMan Small RNA Assays (Thermo Fisher). Reactions were performed in triplicates, and U6 was used as endogenous control. In order to knockdown miR-4485, 70% confluent HNEC cells were transfected with anti-miR-4485 inhibitor (67 nM, Qiagen) or mock inhibitor (miSCRIPT inhibitor negative control, 67 nM, Qiagen) using Lipofectamine RNAiMAX (Invitrogen) as described by the manufacturer. 36 h after transfection, miR-4485 expression, when quantified as described above, was reduced by 50-60% in anti-miR-4485 transfected cells as compared to anti-miR control (n=3 independent experiments).
Background: Real-time PCR tracks product formation cycle by cycle.

In the next assay the test system is autologous CD4+ T cells. The assay can be described thus: DC-T co-cultures, CD4+ T cell proliferation (CFSE). The method, then: Autologous CD4+ T cells were purified from PMBCs by negative selection according to manufacturer instructions (StemCell Technologies, France) (purity>95%)
DCs and confluent ECs were co-cultured overnight as described above, and DC-EC or eduDC was further incubated with P1 (clade B, 125 μM) or medium for 24 h. Then, DCs were separated and incubated with autologous CD4+ T cells pre-labeled with CFSE (Thermo Fisher) according to the manufacturer's instructions, at a ratio of 1:5 (DC/T). After 5 days of culture, CD4+ T cell proliferation was analyzed by flow cytometry as described (Yeh, Yeh et al. 2013, Qin, Yin et al. 2015) using Phytohaemagglutinin (PHA) (5 μg/mL) as positive control.

Assay [1] relates to CD8-depleted PBMCs cocultured with RPMI 2650 cells. The assay can be described thus: In vitro immunization assay with ovalbumin. As to the method:
In vitro immunization assay was performed as reported (Jung, Matsumoto et al. 2007) with modifications. Briefly, 1×10^6 CD8-depleted PBMCs (Human CD8 Depletion Cocktail, StemCell Technologies, France) were cocultured for 24 hrs with RPMI 2650 cells ([…]) pre-seeded in 48 well plates for 48 hrs. Then, ovalbumin (OVA, EndoFit Ovalbumin, 10 µg/mL, Invivogen) alone, OVA together with P1 (5 μM, 25 μM, 125 μM), OVA together with P1 mutant (P1mut, 125 μM), or medium were added to in RPMI 1640 medium supplemented with Non-Essential Amino Acids (NEAA solution, Thermo Fisher), IL-4 ([…]), IL-2 (10 UI/mL) and 2-mercaptoethanol (20 μM) for 7 days.
For the detection of OVA-specific B cells, at indicated time of culture, PMBCs were surface stained with ovalbumin conjugated to fluorescein (OVA-FITC, 20 ug/mL, Thermo), PE-conjugated mouse anti-human CD20 (BD Biosciences, CA, USA), APC-conjugated goat anti-human IgA or donkey anti-human IgG (Jackson ImmunoResearch, PA, USA) as indicated by the manufacturer. Specific labeling was quantified by flow cytometry with a Guava EasyCyte flow cytometer (Merck-Millipore), and analyzed with the dedicated InCyte software, using the following strategy: CD20+ B cells were first gated and cell double positive for OVA-FITC+ and APC-conjugated anti-IgA or anti-IgG were determined as OVA-IgA or IgG-specific B-cell s.
In vitro immunization assays have been used to produce specific monoclonal antibodies using a defined antigen complemented with an adjuvant (Borrebaeck, Danielsson et al. 1987). Here, we establish a mucosal immunization model adapted from (Jung, Matsumoto et al. 2007, Yeh, Yeh et al. 2013, Wijkhuisen, Savatier et al. 2016) and using mucosal DCs based on our results presented above. OVA was selected as the model antigen. Therefore, human CD8-depleted PBMCs (n=5 independent donors) were cocultured with RPMI 2650 cells for one day to educate DCs, and prior to addition of either medium, OVA, OVA plus P1 mutant (P1mut, 125 μM) or OVA plus P1 (5 μM, 25 μM, 125 μM) for seven more days. OVA-specific B cells were quantified by flow cytometry using FITC-conjugated OVA and anti-CD2O-PE to gate on OVA-specific B cells. The Ig isotype of surface B cell receptor (BCR) was next characterized by APC-conjugated anti-human-IgA or anti-human-IgG. […] Similar results were obtained when B cells were stained with anti-CD19-PE.

Take “SQNQQEKNEQELLELDKWASLWNWFNITNWLWYIK [P1]”: the “TSLP secretion time course” value in the assay with RPMI 2650 cells (2-24 hours at 37° C.) was “reaching a plateau from 4 to 24 h”. Also, the TSLP secretion entry with RPMI 2650 cells (P1 5, 25, 125 μM, 2 h to 4 h, compared with medium and scramble peptides) is “upregulates TSLP secretion in a dose-dependent manner”. In addition, in the assay with RPMI 2650 cells (P1 at 125 μM versus 5 μM and 25 μM), the “TSLP secretion, trimeric versus monomeric state” value was “significantly higher secretion of TSLP”. The “Secretion of TSLP” value in the assay with RPMI 2650 cells (peptide at 125 uM, 4 hours, n=5) is 52.3 ± 3.4 pg/mL. Besides, in the assay on primary HNECs (P1 125 μM, 6 hours), the “miR-4485-3p increase, microRNA array” value is on record as above 9 fold. Moreover, in the assay with primary HNECs (P1 125 μM, 6 hours, microRNA array, p<0.05, 23 up-regulated, 16 down-regulated), the “number of differentially expressed microRNAs” value came to 39. In addition, the miR-375 expression result with primary HNECs (primary HNECs, P1 stimulation) is reported as “not accompanied by a change in miR-375 expression”. The “increase in miR-4485-3p expression, qPCR” value in the assay with primary HNECs (upon P1 stimulation, n=4) is 2.6±0.8 fold. The “proliferation of CD4+ T cells” value in the assay with autologous CD4+ T cells (P1 stimulation on CD4+ T cells alone) is recorded as “has no effect”. The “proliferation of autologous CD4+ T cells” value in the assay with autologous CD4+ T cells (peptide-primed eduDCs, 125 μM, 5 days, DC/T 1:5) is “induced the proliferation of autologous CD4+ T cells”. In addition, the “induction of OVA-specific B cells” value in assay [1] (OVA plus P1 at 5 μM and 25 μM, 7 days) was “very limited”; in assay [1] (absence of nasal epithelial cells during the in vitro immunization) it was “not able to induce OVA-specific B cells”. Moreover, in assay [1] (OVA plus P1 at 125 μM, 7 days, n=5 donors), the “OVA-specific B cells (surface OVA-specific IgA and IgG)” value is “significantly enhances OVA recognition by B cells”. The “OVA-specific antibody secretion in culture supernatants” value in assay [1] (day 7, ELISA) is given as “could not be detected by ELISA”.
